Article PMC9381536, “Non-apoptotic cell death induction via sapogenin based supramolecular particles” (Scientific Reports, 2022)

Legend:
A549 = test: Cytotoxicity analysis (WST-1); assay type: cell-based; details: Homo sapiens, A549, 48 h
Experimental: (§1) HCC1937 (Human breast cancer line), HeLa (Human […]), A549 (Human lung adenocarcinoma), MRC-5 (Human lung fibroblasts), MCF7 (Human breast cancer cells), A549 (human lung carcinoma) were obtained from American Type Culture Collection and maintained as exponentially growing monolayers by culturing according to the supplier’s instructions. MCF7, HeLa, MRC-5, and A549 cell lines were cultured and routinely passaged in DMEM media containing 10% FBS, while HCC1937 cell lines were propagated in RPMI 1640 containing 10% FBS.
(§2) Following the treatment with compounds or vehicle for 48 h, the 10% WST-1 (Roche, Switzerland) in medium was replaced in each 96 well. After 4 h incubation with WST-1 reagent at 37 °C and 5% CO2, the absorbance was measured using a microplate reader at 440 nm (Varioscan, Thermo Fisher Scientific, US). Graph Pad Prism 5 (San Diego, CA, US.) was used to calculate the IC50, which represents the concentration of compounds that is required for 50% inhibition in comparison to the vehicle-treated controls. The experiments were repeated three times independently.

HCC1937 = test: Cytotoxicity analysis (WST-1); assay type: cell-based; details: Homo sapiens, HCC1937, 48 h
Experimental: as §1, §2

HeLa = test: Cytotoxicity analysis (WST-1); assay type: cell-based; details: Homo sapiens, 48 h
Experimental: as §1, §2

MCF7 = test: Cytotoxicity analysis (WST-1); assay type: cell-based; details: Homo sapiens, MCF7, 48 h
Experimental: as §1, §2

MRC-5 = test: Cytotoxicity analysis (WST-1); assay type: cell-based; details: Homo sapiens, MRC5, MRC-5 normal cell line, 48 h
Experimental: as §1, §2

HCC1937 cells [1] = test: Endocytosis/vesicular trafficking inhibitors against AG-08-mediated cell death; assay type: cell-based, Human; details: 1 h pre-treatment, then 8 µM AG-08 24 h, HCC1937, WST-1
Experimental: Figure 2 AG-08 is related with endosomal pathway. (A) After pre-treatment with 20 µM pitstop II, 0.5 mM methyl-β-cyclodextrin (MβC), 80 µM dynasore, 20 µM cytochalasin d (Cyto D) or 20 µM chlorpromazine (CPZ) for 1 h, HCC1937 cells were treated with 8 µM AG-08 for 24 h. Then cell viability was determined by using WST-1. Reported values were normalized on cells treated with only AG-08. Error bars are the standard deviations (n = 3). p-values were calculated with respect to AG-08 treated cells by two-tailed equal variance Student’s t-test (*p < 0.05, ***p < 0.001, ****p < 0.0001) (B) HCC1937 cells were treated with brefeldin A (Bref A) for 1 h and then treated with 8 µM AG-08 for 24 h. Error bars represent standard deviations (n = 3). p-values were calculated with respect to AG-08-treated cells (*p < 0.05, **p < 0.005, ***p < 0.001). (C) Following AG-08 treatment for 16 h, EEA1 proteins were stained using the anti-EEA1 antibody in HCC1937 cells (scale bar = 25 µm).
Pitstop II (Sigma; SML1169), methyl β cyclodextrin (Cayman; 21,633), chlorpromazine (Cayman; 16,129), dynasore (Cayman, 14,062) and cytochalasin D (Cayman; 11,330) were used as endocytosis inhibitors.

[2] = tested on: HeLa, HCC1937, MCF7, A549 and MRC-5; test: cells; assay type: cell-based, Human
Description: We next aimed to further characterize the relation between the chemical structure of AG-08 and its capacity of supramolecular assembly formation together with its biological activities by preparing further derivatives. In this regard, 18 analogs (Fig. 4) were synthesized from 20(27)-octanor-cycloastragenol (SCG), cycloastragenol (CG), and astragenol (AG) by the methods shown in the method section. The details and characterization of which are shown in Supplementary Information. The cytotoxic activities of the semi-synthetic analogs were evaluated against four human cancer cell lines, namely HeLa, HCC1937, MCF7, and A549 as well as against MRC-5 as a normal cell line.
as §1, §2

HCC1937 cells [3] = test: Cytotoxicity of 220 nm filtrates; assay type: cell-based; details: HCC1937, 24 h
Experimental: Figure 1 AG-08 mediated cytotoxicity relies on the supramolecular structures. (A) Structure of AG-08. (B) The scanning transmission electron micrograph of 16 µM AG-08 in PBS. Figure is a representative image of stained sample with uranyl acetate (5683 × magnification; scale bar 600 nm). (C) After 3 h incubation of Nile red solution with AG-08 or AG, fluorescence intensity of Nile red was measured. (D) AG-08, Staurosporine (Sta) or vehicle samples prepared in the cell condition medium was filtrated by 220 nm filter and HCC1937 cells were exposed to the filtrates. After 24 h, the viability of cells was measured and represented as a percentage of that of the vehicle control. The error bars represent mean value ± s.d. (n = 3). *p < 0.05, **p < 0.005, ***p < 0.001. (E) Tween 20 (1:40,000) was added to the fresh medium before addition of 8 μM AG-08 or vehicle. Then cell medium was replaced with this fresh medium. Cell viability was detected after 24 h incubation. […] TEXT PRINTED IN THE PICTURE: (F) no label printed: Diameter: 153.2±4.6; polydispersity index: 0.218
To verify that the activity of AG-08 arises from its supramolecular structures, freshly prepared AG-08 solutions were filtered using 220 nm-filters to remove AG-08 supramolecular particles from medium, and the filtrates were analyzed for their cytotoxicity. […] Next, Tween-20 was utilized as a non-ionic detergent to block particle formation, and AG-08-mediated cell death was inhibited as expected (Fig. 1E). […]

Molecule | IC50 (A549) [µM] | IC50 (HCC1937) [µM] | IC50 (HeLa) [µM] | IC50 (MCF7) [µM] | IC50 (MRC-5) [µM] | protection of cells against AG-08-mediated cell death (HCC1937 cells [1]) | cytotoxic activity (structure-activity statement) [2] | cytotoxicity of filtrate after 220 nm filtration (HCC1937 cells [3])
CC1(C)C(OS(C)(=O)=O)CCC23CC24CCC2(C)CC(OS(C)(=O)=O)CC2(C)C4C=CC13 (stereo not drawn) [SCG-06] | > 50 | > 50 | > 50 | > 50 | > 50 | – | – | –
CN(C)CCCN1c2ccccc2Sc2ccc(Cl)cc21 [chlorpromazine] | – | – | – | – | – | failed to rescue cells | – | –
C=C1[C@@H](C)[C@H]2[C@H](Cc3ccccc3)NC(=O)[C@]23[C@H](OC(C)=O)/C=C/[C@@](C)(O)C(=O)[C@@H](C)C/C=C/[C@H]3[C@@H]1O [cytochalasin D] | – | – | – | – | – | failed to rescue cells | – | –
CC(C)(O)C1CCC(C)(C2C(O)CC3(C)C4C=CC5C(C)(CCC(OS(C)(=O)=O)C5(C)C)C4=CCC23C)O1 (stereo not drawn) [AG-04] | 27.5 | > 50 | > 50 | 22.1 | 29.6 | – | the activity was lost | –
Cc1ccc(S(=O)(=O)OC2CC3(C)CCC45CC46CCC(O)C(C)(C)C6C=CC5C3(C)C2)cc1 (stereo not drawn) [SCG-05] | > 50 | > 50 | > 50 | > 50 | > 50 | – | – | –
CC1(C)C(O)CCC23CC24CCC2(C)CC(O)CC2(C)C4C=CC13 (stereo not drawn) [SCG-02] | > 50 | > 50 | > 50 | > 50 | > 50 | – | – | –
CN(C)c1cccc2c(S(=O)(=O)OC3CCC4(C)C5=CCC6(C)C(C7(C)CCC(C(C)(C)O)O7)C(O)CC6(C)C5C=CC4C3(C)C)cccc12 (stereo not drawn) [AG-07] | 38.2 | 38.3 | 34.7 | – | 7.4 | – | loss of activity | –
O=C1N=C(NS(=O)(=O)c2cccc3ccccc23)SC1=Cc1ccc(Br)cc1 [pitstop II] | – | – | – | – | – | effectively protected cells | – | –
CC(C)(O)C1CCC(C)(C2C(O)CC3(C)C4CC(O)C5C(C)(C)C(O)CCC56CC46CCC23C)O1 (stereo not drawn) [CG, cycloastragenol, reference compound] | > 50 | > 50 | > 50 | > 50 | > 50 | – | – | –
C[C@H]1CCC/C=C/[C@@H]2C[C@H](O)C[C@H]2[C@H](O)/C=C/C(=O)O1 [Brefeldin A] | – | – | – | – | – | reduced AG-08 dependent cell death | – | –
CC1(C)C(O)CCC23CC24CCC2(C)CC(O)CC2(C)C4CC(O)C13 (stereo not drawn) [SCG, 20(27)-octanor-cycloastragenol, reference compound] | > 50 | > 50 | > 50 | > 50 | > 50 | – | – | –
Cc1ccc(S(=O)(=O)OC2CC3C4(C)CC(O)CC4(C)CCC34CC43CC=CC(C)(C)C23)cc1 (stereo not drawn) [SCG-03] | > 50 | > 50 | > 50 | > 50 | > 50 | – | – | –
O=C(N/N=C/c1ccc(O)c(O)c1)c1cc2ccccc2cc1O [dynasore] | – | – | – | – | – | failed to rescue cells | – | –
CC(C)(O)C1CCC(C)(C2C(O)CC3(C)C4CC(=O)C5C(C)(CCC(O)C5(C)C)C4=CCC23C)O1 (stereo not drawn) [AG-01] | > 30 | > 30 | > 30 | > 30 | > 30 | – | – | –
methyl β-cyclodextrin | – | – | – | – | – | effectively protected cells | – | –
CC(C)(O)C1CCC(C)(C2C(O)CC3(C)C4CC(=O)C5C(C)(C)C(O)CCC56CC46CCC23C)O1 (stereo not drawn) [CG-01] | > 30 | > 30 | > 30 | > 30 | > 30 | – | – | –
Cc1ccc(S(=O)(=O)OC2CC3(C)CCC45CC46CCC(OS(=O)(=O)c4ccc(C)cc4)C(C)(C)C6C=CC5C3(C)C2)cc1 (stereo not drawn) [SCG-04] | > 50 | > 50 | > 50 | > 50 | > 50 | – | – | –
CC1(C)C(O)CCC23CC24CCC2(C)CC(OS(C)(=O)=O)CC2(C)C4CC(O)C13 (stereo not drawn) [SCG-07] | > 50 | > 50 | > 50 | > 50 | > 50 | – | – | –
CC(C)(O)C1CCC(C)(C2C(O)CC3(C)C4C=CC5C(C)(C)C(OS(C)(=O)=O)CCC56CC46CCC23C)O1 (stereo not drawn) [CG-04] | > 50 | > 50 | > 50 | > 50 | > 50 | – | the activity was lost | –
CN[C@@H]1C[C@H]2O[C@@](C)([C@@H]1OC)n1c3ccccc3c3c4c(c5c6ccccc6n2c5c31)C(=O)NC4 [staurosporine, reference compound] | – | – | – | – | – | – | – | still effectively caused cell death
CC(C)(O)C1CCC(C)(C2C(O)CC3(C)C4CC(O)C5C(C)(C)C=CCC5(C)C4=CCC23C)O1 (stereo not drawn) [AG-02] | 30.5 | 46.1 | 42.6 | 32.1 | 39.9 | – | did not exhibit antiproliferative effect | –
CC(C)(O)C1CCC(C)(C2C(O)CC3(C)C4C=CC5C(C)(CCC(O)C5(C)C)C4=CCC23C)O1 (stereo not drawn) [AG-03] | 25.5 | 20.3 | 33.4 | 21.8 | 24.4 | – | – | –
Cc1ccc(S(=O)(=O)OC2CC3(C)CCC45CC46CCC(O)C(C)(C)C6C(O)CC5C3(C)C2)cc1 (stereo not drawn) [SCG-01] | > 50 | > 50 | > 50 | > 50 | > 50 | – | – | –
CC(C)(O)C1CCC(C)(C2C(O)CC3(C)C4C=CC5C(C)(C)C(O)CCC56CC46CCC23C)O1 (stereo not drawn) [CG-02] | 21.1 | 32.5 | 43.9 | 21.2 | 33.4 | – | did not exhibit antiproliferative effect | –
